# Assay results published in US20230393122A1 (priority 2022, published 2023).
# Where two headings read alike, the source gives them in different places.
# Key:
# [1] = tested on: SARS-CoV-2; settings: Vero E6 cells; read-out: IC50 against SARS-CoV-2 in Vero E6 cells; cited from earlier work
# [2] = tested on: SARS-CoV-2 WT; assay: Viral load reduction assay in EPSC-derived eSTB cells (qRT-PCR of supernatant viral copies); type: cell-based; settings: for IC50: read-out: IC50 for SARS-CoV-2 in eSTBs
# [3] = tested on: SARS-CoV-2 WT; assay: Viral load reduction assay in naïve-eSTB cells; type: cell-based; settings: compared with EPSC-eSTBs
# [4] = tested on: SARS-CoV-2 infected eSTBs; type: cell-based, human
# [5] = tested on: MERS-CoV; type: cell-based; settings: 48 h.p.i., efficiency comparable to that in Vero E6 cells
# [6] = tested on: SARS-CoV-2; settings: cited from earlier work
smiles,measurement,setting,value
CC(C)C[C@H](NC(=O)OCc1ccccc1)C(=O)N[C@@H](CC1CCNC1=O)C(O)S(=O)(=O)O (some centres unmarked) [GC376],IC50,[1],700 nM
same,IC50,[2],31.2 ± 5.6 nM
CC(C)C[C@H](NC(=O)OCc1ccccc1)C(=O)N[C@@H](C[C@@H]1CCNC1=O)C(O)S(=O)(=O)[O-].[Na+] (some centres unmarked) [GC376],IC50 against SARS-CoV-2 in naïve-eSTBs,[3],similarly low
same,eSTB development and differentiation along PI-TB to PI-STB pseudotime trajectory,[4],partially rescued
same,MERS-CoV replication in eSTBs,[5],effectively block
same,Survival of mice with a fatal SARS-CoV-2 infection,[6],increases survival
same,"Viral copy in the supernatant, SARS-CoV-2 WT (FIG. 17B)",[2]; EPSC-derived eSTB cells,dose-dependent inhibition
CCC(CC)COC(=O)[C@H](C)N[P@](=O)(OC[C@H]1O[C@@](C#N)(c2ccc3c(N)ncnn23)[C@H](O)[C@@H]1O)Oc1ccccc1 [remdesivir],IC50,"[2]; Severe acute respiratory syndrome coronavirus 2, 48 h",3.2 ± 0.1 nM
